Data as given in PubChem BioAssay (NCI).
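Values below derive from 48-hour exposures of cells grown in 96-well plates, with endpoints linearly interpolated between the two concentrations bracketing the appropriate inhibition level. Abbreviation: GI50, concentration required for 50% inhibition of growth. TGI: concentration producing complete growth inhibition.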

Legend:
Assay in all cases: NCI tumour cell line growth inhibition, 48 h
TK-10 renal = tested on: TK-10 renal
EKVX NSCLC = tested on: EKVX NSCLC
MALME-3M melanoma = tested on: MALME-3M melanoma
M14 melanoma = tested on: M14 melanoma
MDA-MB-231 breast = tested on: MDA-MB-231 breast
HCC-2998 colon = tested on: HCC-2998 colon
HOP-92 NSCLC = tested on: HOP-92 NSCLC
MDA-MB-435 = tested on: MDA-MB-435

SMILES | TGI (TK-10 renal) [µM] | TGI (EKVX NSCLC) [µM] | TGI (MALME-3M melanoma) [µM] | TGI (M14 melanoma) [µM] | TGI (MDA-MB-231 breast) [µM] | TGI (HCC-2998 colon) [µM] | TGI (HOP-92 NSCLC) [µM] | TGI (MDA-MB-435) [µM] | GI50 (TK-10 renal) [µM] | GI50 (MALME-3M melanoma) [µM] | GI50 (M14 melanoma) [nM] | GI50 (MDA-MB-231 breast) [µM] | GI50 (HCC-2998 colon) [nM] | GI50 (HOP-92 NSCLC) [µM] | GI50 (MDA-MB-435) [nM] | GI50 (EKVX NSCLC) [nM]
C[C@]12CC[C@H](O)CC1=CC[C@@H]1C2CC[C@]2(C)c3nn(-c4ccc(F)cc4)nc3CC12 (stereo partly drawn) | > 100 | > 100 | > 100 | > 100 | > 100 | 72.7 | > 100 | > 100 |  |  |  |  |  |  |  | 
COc1c(C)c2c(c(O)c1C/C=C(\C)CCC(=O)OCCN1CCOCC1)C(=O)OC2 | > 100 | > 100 | > 100 | > 100 | > 100 | > 100 | > 100 | > 100 | > 24.7 | 2.5 | 290 | 3.48 | 390 | 5.18 | 201 | 
COc1ccccc1C1=C2C(=O)N(C)C(c3ccccc3OC)=C2C(=O)N1C | > 100 | > 100 | > 100 | > 100 | > 100 | > 100 | > 100 | > 100 |  |  |  |  |  |  |  | 
COC(=O)COc1ccc(/C=C2\N=C(c3ccccc3)N(c3cc(C(F)(F)F)ccc3Cl)C2=O)cc1 | > 100 | > 100 | > 100 | > 100 | > 100 | > 100 | > 100 | > 100 | > 100 | 54.1 | 50600 | > 100 | 64000 | 75.9 | 50300 | > 100000
CN(C)NC1=NS(=O)(=O)c2cc3c(cc2S1)N(N(C)C)C(=O)c1cc2c(cc1N(N(C)C)C3=O)SC(NN(C)C)=NS2(=O)=O | > 10 | > 10 | > 10 | > 10 |  | > 10 | > 10 |  |  |  |  |  |  |  |  | 
O=C(Nc1ccc(-n2cc(-c3ccncc3)c(-c3ccc(Cl)c(O)c3)n2)cc1)Nc1cc(C(F)(F)F)cc(C(F)(F)F)c1 | 11.4 | 5.51 |  | 3.56 | 4.93 | 3.37 | 3.99 | 3.45 | 3.05 |  | 1760 | 2.11 | 1790 | 1.34 | 1770 | 1970
C=C1C[C@@H]2C/C=C/C(=O)C/C(C)=C\C=C\C(=O)O[C@H](C=O)C/C(C)=C/[C@H](C1)O2 | 18 | 21.2 | 38.4 | 0.738 | 13.1 | 3.32 | 2.34 | > 100 | 3.62 | 13.6 | 281 | 3.69 | 770 | 0.367 | 316 | 3680
CN(C)CCCN=C(N)N | > 100 | > 100 | > 100 | > 100 | > 100 |  | > 100 | > 100 |  |  |  |  |  |  |  | 
COc1ccc2c(c1)nc(N)c1c3cc(OC)c(OC)cc3cn21 | 20.8 | 22 | 37.7 |  | 17.4 | 16.5 | 23.9 |  | 3.48 | 9.39 |  | 0.345 | 43.4 | 5.09 | < 10 | 1810
